Measured values reported in ChEMBL document CHEMBL1240439, “Synthesis and docking studies of novel benzopyran-2-ones with anticancer activity” (2010).
Activity calls are given as the source filed them.

Experiments:
Format in all cases: functional
BT-549 = assay: Cytotoxicity against human BT549 cells assessed as cell growth at 10 uM after 48 hrs by sulforhodamine B assay
UACC-62 = assay: Cytotoxicity against human UACC62 cells assessed as cell growth at 10 uM after 48 hrs by sulforhodamine B assay
K562 = assay: Cytotoxicity against human K562 cells assessed as cell growth at 10 uM after 48 hrs by sulforhodamine B assay
T47D = assay: Cytotoxicity against human T47D cells assessed as cell growth at 10 uM after 48 hrs by sulforhodamine B assay
UACC-257 = assay: Cytotoxicity against human UACC257 cells assessed as cell growth at 10 uM after 48 hrs by sulforhodamine B assay
MCF7 = assay: Cytotoxicity against human MCF7 cells assessed as cell growth at 10 uM after 48 hrs by sulforhodamine B assay
HOP-92 = assay: Cytotoxicity against human HOP92 cells assessed as cell growth at 10 uM after 48 hrs by sulforhodamine B assay
SK-MEL-2 = assay: Cytotoxicity against human SK-MEL-2 cells assessed as cell growth at 10 uM after 48 hrs by sulforhodamine B assay
HL-60(TB) = assay: Cytotoxicity against human HL-60(TB) cells assessed as cell growth at 10 uM after 48 hrs by sulforhodamine B assay
NCI-H226 = assay: Cytotoxicity against human NCI-H226 cells assessed as cell growth at 10 uM after 48 hrs by sulforhodamine B assay
NCI-H23 = assay: Cytotoxicity against human NCI-H23 cells assessed as cell growth at 10 uM after 48 hrs by sulforhodamine B assay
SK-MEL-5 = assay: Cytotoxicity against human SK-MEL-5 cells assessed as cell growth at 10 uM after 48 hrs by sulforhodamine B assay
SF-295 = assay: Cytotoxicity against human SF295 cells assessed as cell growth at 10 uM after 48 hrs by sulforhodamine B assay
NCI-H322M = assay: Cytotoxicity against human NCI-H322M cells assessed as cell growth at 10 uM after 48 hrs by sulforhodamine B assay
SNB-75 = assay: Cytotoxicity against human SNB75 cells assessed as cell growth at 10 uM after 48 hrs by sulforhodamine B assay
Malme-3M = assay: Cytotoxicity against human MALME-3M cells assessed as cell growth at 10 uM after 48 hrs by sulforhodamine B assay
COLO 205 = assay: Cytotoxicity against human COLO205 cells assessed as cell growth at 10 uM after 48 hrs by sulforhodamine B assay
A498 = assay: Cytotoxicity against human A498 cells assessed as cell growth at 10 uM after 48 hrs by sulforhodamine B assay
SK-MEL-28 = assay: Cytotoxicity against human SK-MEL-28 cells assessed as cell growth at 10 uM after 48 hrs by sulforhodamine B assay
SNB-19 = assay: Cytotoxicity against human SNB19 cells assessed as cell growth at 10 uM after 48 hrs by sulforhodamine B assay
RPMI-8226 = assay: Cytotoxicity against human RPMI8226 cells assessed as cell growth at 10 uM after 48 hrs by sulforhodamine B assay
A549 = assay: Cytotoxicity against human A549 cells assessed as cell growth at 10 uM after 48 hrs by sulforhodamine B assay
MOLT-4 = assay: Cytotoxicity against human MOLT4 cells assessed as cell growth at 10 uM after 48 hrs by sulforhodamine B assay
RXF 393 = assay: Cytotoxicity against human RXF393 cells assessed as cell growth at 10 uM after 48 hrs by sulforhodamine B assay
PC-3 = assay: Cytotoxicity against human PC3 cells assessed as cell growth at 10 uM after 48 hrs by sulforhodamine B assay
OVCAR-5 = assay: Cytotoxicity against human OVCAR5 cells assessed as cell growth at 10 uM after 48 hrs by sulforhodamine B assay
KM12 = assay: Cytotoxicity against human KM12 cells assessed as cell growth at 10 uM after 48 hrs by sulforhodamine B assay
NCI-H460 = assay: Cytotoxicity against human NCI-H460 cells assessed as cell growth at 10 uM after 48 hrs by sulforhodamine B assay
HOP-62 = assay: Cytotoxicity against human HOP62 cells assessed as cell growth at 10 uM after 48 hrs by sulforhodamine B assay
Hs-578T = assay: Cytotoxicity against human Hs 578T cells assessed as cell growth at 10 uM after 48 hrs by sulforhodamine B assay
SF-539 = assay: Cytotoxicity against human SF539 cells assessed as cell growth at 10 uM after 48 hrs by sulforhodamine B assay
OVCAR-8 = assay: Cytotoxicity against human OVCAR8 cells assessed as cell growth at 10 uM after 48 hrs by sulforhodamine B assay
HCC 2998 = assay: Cytotoxicity against human HCC2998 cells assessed as cell growth at 10 uM after 48 hrs by sulforhodamine B assay
MDA-MB-435 = assay: Cytotoxicity against human MDA-MB-435 cells assessed as cell growth at 10 uM after 48 hrs by sulforhodamine B assay
OVCAR-3 = assay: Cytotoxicity against human OVCAR-3 cells assessed as cell growth at 10 uM after 48 hrs by sulforhodamine B assay
SK-OV-3 = assay: Cytotoxicity against human SKOV3 cells assessed as cell growth at 10 uM after 48 hrs by sulforhodamine B assay
ACHN = assay: Cytotoxicity against human ACHN cells assessed as cell growth at 10 uM after 48 hrs by sulforhodamine B assay
786-0 = assay: Cytotoxicity against human 786-0 cells assessed as cell growth at 10 uM after 48 hrs by sulforhodamine B assay
HCT-15 = assay: Cytotoxicity against human HCT15 cells assessed as cell growth at 10 uM after 48 hrs by sulforhodamine B assay
UO-31 = assay: Cytotoxicity against human UO31 cells assessed as cell growth at 10 uM after 48 hrs by sulforhodamine B assay
TK-10 = assay: Cytotoxicity against human TK10 cells assessed as cell growth at 10 uM after 48 hrs by sulforhodamine B assay
SF-268 = assay: Cytotoxicity against human SF268 cells assessed as cell growth at 10 uM after 48 hrs by sulforhodamine B assay
HCT-116 = assay: Cytotoxicity against human HCT116 cells assessed as cell growth at 10 uM after 48 hrs by sulforhodamine B assay
M14 = assay: Cytotoxicity against human M14 cells assessed as cell growth at 10 uM after 48 hrs by sulforhodamine B assay
OVCAR-4 = assay: Cytotoxicity against human OVCAR4 cells assessed as cell growth at 10 uM after 48 hrs by sulforhodamine B assay
EKVX = assay: Cytotoxicity against human EKVX cells assessed as cell growth at 10 uM after 48 hrs by sulforhodamine B assay
LOX IMVI = assay: Cytotoxicity against human LOXIMVI cells assessed as cell growth at 10 uM after 48 hrs by sulforhodamine B assay
NCI-H522 = assay: Cytotoxicity against human NCI-H522 cells assessed as cell growth at 10 uM after 48 hrs by sulforhodamine B assay
U-251 = assay: Cytotoxicity against human U251 cells assessed as cell growth at 10 uM after 48 hrs by sulforhodamine B assay
IGROV-1 = assay: Cytotoxicity against human IGROV1 cells assessed as cell growth at 10 uM after 48 hrs by sulforhodamine B assay
MDA-MB-231 = assay: Cytotoxicity against human MDA-MB-231 cells assessed as cell growth at 10 uM after 48 hrs by sulforhodamine B assay
SN12C = assay: Cytotoxicity against human SN12C cells assessed as cell growth at 10 uM after 48 hrs by sulforhodamine B assay
DU-145 = assay: Cytotoxicity against human DU145 cells assessed as cell growth at 10 uM after 48 hrs by sulforhodamine B assay
HT-29 = assay: Cytotoxicity against human HT-29 cells assessed as cell growth at 10 uM after 48 hrs by sulforhodamine B assay
MDA-MB-468 = assay: Cytotoxicity against human MDA-MB-468 cells assessed as cell growth at 10 uM after 48 hrs by sulforhodamine B assay
SW-620 = assay: Cytotoxicity against human SW620 cells assessed as cell growth at 10 uM after 48 hrs by sulforhodamine B assay
SR = assay: Cytotoxicity against human SR cells assessed as cell growth at 10 uM after 48 hrs by sulforhodamine B assay
CCRF-CEM = assay: Cytotoxicity against human CCRF-CEM cells assessed as cell growth at 10 uM after 48 hrs by sulforhodamine B assay

Measured: Activity

CSc1nnc(COc2ccc3c(-c4ccccc4)cc(=O)oc3c2C)o1
inactive: BT-549 | UACC-62 | K562 | T47D | UACC-257 | MCF7 | HOP-92 | SK-MEL-2 | HL-60(TB) | NCI-H226 | NCI-H23 | SK-MEL-5 | SF-295 | NCI-H322M | SNB-75 | Malme-3M | COLO 205 | A498 | SK-MEL-28 | SNB-19 | RPMI-8226 | A549 | MOLT-4 | RXF 393 | PC-3 | OVCAR-5 | KM12 | NCI-H460 | HOP-62 | Hs-578T | SF-539 | OVCAR-8 | HCC 2998 | MDA-MB-435 | OVCAR-3 | SK-OV-3 | ACHN | 786-0 | HCT-15 | UO-31 | TK-10 | SF-268 | HCT-116 | M14 | OVCAR-4 | EKVX | LOX IMVI | NCI-H522 | U-251 | IGROV-1 | MDA-MB-231 | SN12C | DU-145 | HT-29 | MDA-MB-468 | SW-620 | SR | CCRF-CEM
